This is an account of results in US20230349008A1, “PAPER-BASED SAMPLE TESTING DEVICES AND METHODS THEREOF” (CORNELL UNIVERSITY, priority 2020, published 2023).

The subject of assay [1] is E. coli ATCC-25922. Put plainly: On-chip paper-based antimicrobial susceptibility testing (AST), resazurin colorimetric readout. In kind it is cell-based, Escherichia coli. Conditions: eight test zones: seven antibiotic concentrations plus no-antibiotic control; overnight 37° C.; 5×10^5 CFU/mL; hue threshold. The source says: (§1) To functionalize the chips for AST, antibiotics and the growth-sensitive dye resazurin were pre-dried on the chip to enable testing with a single sample addition step. Antibiotics used consisted of ampicillin, meropenem, gentamicin, and ciprofloxacin (all sourced from MilliporeSigma). The growth-sensitive dye resazurin (PrestoBlue, Thermo Fisher) is a redox indicator that is reduced by metabolically active cells into resorufin, leading to significant colorimetric and fluorescent changes which provide a visual indication of bacterial growth as disclosed in Guerin, et al., “Application of resazurin for estimating abundance of contaminant-degrading micro-organisms,” Lett. Appl. […] Using a spectrophotometer (V-1200, VWR), the OD625 nm absorbance corresponding to a 0.5 McFarland standard was verified to be in the range of 0.08-0.13 22. […] To quantitatively analyze color change in the test zones following incubation, test chips were imaged using a smartphone and analyzed in MATLAB (MathWorks). Images were analyzed in the hue, saturation, value (HSV) color-space which we determined to be less sensitive to lighting conditions compared to the red, blue, green (RGB) color-space. For each test zone, the average hue value in a 160-pixel diameter circular region was calculated and a threshold was used to differentiate between zones with reduced (growth) and unreduced (no growth) resazurin. […]

In assay [2] the test system is E. coli BAA-2452. The assay is described as above. Format: cell-based, Escherichia coli. Conditions: eight test zones: seven antibiotic concentrations plus no-antibiotic control; overnight 37° C.; 5×10^5 CFU/mL; hue threshold.
Description: as §1

For assay [3], the system named is E. coli BAA-2452. Conditions: vendor MIC interpretation; cited from earlier work.
For assay [4], the system named is E. coli ATCC-25922. Conditions: vendor MIC interpretation; cited from earlier work.

As to `CC1(C)S[C@@H]2[C@H](NC(=O)[C@H](N)c3ccccc3)C(=O)N2[C@H]1C(=O)O` [ampicillin], the “number of positive test zones (reduced resazurin, uninhibited growth)” value in the assay on E. coli ATCC-25922 [1] was “no-antibiotic control positive only”; in the assay on E. coli BAA-2452 [2], “six”. The “susceptibility category via off-chip AST” value with E. coli BAA-2452 [3] is on record as “resistant”; in the assay with E. coli ATCC-25922 [4], “susceptible”.
